Results on one compound are retold here after patent US11390626B2, “Pyrazolopyrimidine modulators of RAS GTPase” (Tosk, Inc., priority 2019, dated 2022).

Entries after “also recorded” stand apart in the source; their conditions may differ.

The test system of experiment [1] is Drosophila melanogaster flies with human G12V kRAS expressed in the wing. The experiment is described as follows: Fly screen: reversal of crinkled wing phenotype. The class given is in vivo. The text has this: The Tosk approach uses Drosophila melanogaster flies as media for initial screening for RAS modulating compounds. Tosk has created a fruit fly with human kRAS G12V expressed in its wing. The mutant kRAS expressed in the fly wing appears functional, even though it operates in the presence of the other physiological systems present in the fly. The fly phenotype in the mutant fly is a crimped wing which can be reversed to a great extent if the fly is fed food enriched with an effective kRAS inhibitor. The fly kRAS suppressor screen can provide a more predictive model compared to conventional discovery methods because the kRAS is in its natural (i.e., not artificial/isolated/manipulated) environment anchored to the plasma membrane, positioned correctly, and surrounded by appropriate neighboring chemicals. Several reports have emphasized the importance of kRAS positioning and environment to realize protein activity.
2. Fly with Crinkled Wing Phenotype.
1. Production of Fly Food/Test Article Mix. A Biomek 2000 robotic arm is used to pipet 40 μL of a 10 mM DMSO solution of Test Article into a 35 mL polypropylene Drosophila fly vial (VWR 89092-728) containing 10 mL ETOH. A half teaspoon blue fly food (4-24, Carolina Biological Supply), is added and the tubes are vortexed and placed into a HT-4X GeneVac to remove the DMSO and ETOH. The tube is vortexed, 4 ml water added, and vortexed again. Control samples are tubes with fly food prepared with just 40 μL DMSO, no Test Article, or 40 μL of a DMSO solution containing 50 μM of the trametanib positive control. 2. Screen. Several hundred male G12V kRAS flies and several hundred GAL4 females are placed in a custom Plexiglas population cage (12″×12″×8″) made fly condo containing grape agar and yeast paste prepared using a published protocol. Embryos from the container are washed off the grape agar onto a sieve and re-suspended in an aqueous sucrose/salt/triton solution. An aliquot of this solution is analyzed using a dissecting microscope to determine the embryo concentration. The appropriate solution to deliver 150 embryos is then added to the fly food/Test article vials. The vial is capped with a cellulose fly bottle plug. […] The vials are incubated at 23° C. in a temperature-controlled room for 12 days. 3. Analysis. After 12 days, all flies in a vial are observed under a microscope following CO2 anesthesia for the number of phenotype reversals compared to the total number of viable flies. Cell culture testing is typically performed for any Test Article showing evidence of >25% phenotype reversal. The trametinib positive control provides reversal of the crimped/crinkled phenotype for 50-75% of the flies.
A library of over 16,000 distinct chemicals was purchased from ChemDiv, San Diego, Calif. All the compounds were evaluated in the fly screen described above for the ability to reverse the crinkled wing phenotype. […] One of the three compounds was Structure 1.

A further experiment has as its system non-phosphorylated AKT. The experiment is described as follows: Non-phosphorylated AKT western blot in SW1990 cells. The class given is cell-based, human. The following applies: data not shown. As to the method: Structure 1 decreased both phosphorylated AKT and phosphorylated ERK. Structure 1 had no effect on AKT or ERK (data not shown).
A method used to measure ERK and AKT is based on Welsch et al, Cell 168: 878-889 February 2017. SW1990 cells, growth driven by a G12D kRAS mutation and derived from human, pancreatic cancer cells, are plated in a 6-well plate at 1.5×10^6 cells per plate and grown overnight at 37° C. Media is replaced with serum-free media and the plate incubated an additional 24 hours. Media is replaced with media with or without compound and incubated for an additional 24 hours. EGF is added at a concentration of 10 ng/mL. After 15 minutes, cells are washed with ice cold PBS and lysed with RIPA buffer.
The lysate is processed by electrophoresis using a Mini-PROTEAN® gel mounted in a Mini-PROTEAN® Tetra Cell (cassette). Both the gel and the holding assembly (cassette) are purchased from BIORAD. The gel in the assembly is placed, electrode up, in the buffer tanks. The Tris/glycine/SDS buffer is added to both the inner buffer chamber (200 mL) and the outer buffer chamber (800 mL). […]
The membrane is placed into TTBS buffer containing SuperBlock T20 (Thermo Scientific) and incubated for 1 hour at room temperature. […] The anti pERK detected both pERK 1 and 2 (T202/Y204). […]

The target in the next experiment is MAPK3 (ERK1) (Homo sapiens, UniProt P27361). Description: Protein kinase inhibition. The class given is biochemical. The following applies: tested at 3 μM. Here is the method:
(§1) The exemplary compound was also tested at 3 μM for protein kinase inhibition against the following protein kinases: AKT1, AKT2, AKT3, EGF-R, EGF-R (L858R mutation), FRAP1, GSK3B, MAPK1 (ERK2), MAPK3 (ERK1), BRAF, BRAF V599E, MAP2K1 (MEK1), MAP2K2 (MEK2), PDK1, RAF1, PI3K C2A, PI3K C2B, P13K C3, PI3K 3A, PI3K CB, PI3K CD, and PI3K CG. […] The main downstream targets for kRAS are ERK (Samatar et al., Targeting RAS-ERK signaling in cancer: promises and challenges. Nat Rev Drug Discov. 2014; 13:928-42 and Martini et al., Ann Med. 2014; 46:372-83). kRAS activates ERK and AKT leading to phosphorylated ERK and phosphorylated AKT. A compound that suppresses kRAS activity is expected to lower phosphorylated ERK and phosphorylated AKT.

Another experiment concerns the target PI3K C2A (Homo sapiens, UniProt O00443). The experiment is described as follows: Protein kinase inhibition. The note with it: tested at 3 μM. The experiment is classed as biochemical. Here is the method: as §1
In another experiment the target is PI3K CG (Homo sapiens, UniProt P48736). The experiment is described as follows: Protein kinase inhibition. The following applies: tested at 3 μM. The experiment is classed as biochemical. Here is the method: as §1
Sequence of PI3K CG (P48736 whole entry): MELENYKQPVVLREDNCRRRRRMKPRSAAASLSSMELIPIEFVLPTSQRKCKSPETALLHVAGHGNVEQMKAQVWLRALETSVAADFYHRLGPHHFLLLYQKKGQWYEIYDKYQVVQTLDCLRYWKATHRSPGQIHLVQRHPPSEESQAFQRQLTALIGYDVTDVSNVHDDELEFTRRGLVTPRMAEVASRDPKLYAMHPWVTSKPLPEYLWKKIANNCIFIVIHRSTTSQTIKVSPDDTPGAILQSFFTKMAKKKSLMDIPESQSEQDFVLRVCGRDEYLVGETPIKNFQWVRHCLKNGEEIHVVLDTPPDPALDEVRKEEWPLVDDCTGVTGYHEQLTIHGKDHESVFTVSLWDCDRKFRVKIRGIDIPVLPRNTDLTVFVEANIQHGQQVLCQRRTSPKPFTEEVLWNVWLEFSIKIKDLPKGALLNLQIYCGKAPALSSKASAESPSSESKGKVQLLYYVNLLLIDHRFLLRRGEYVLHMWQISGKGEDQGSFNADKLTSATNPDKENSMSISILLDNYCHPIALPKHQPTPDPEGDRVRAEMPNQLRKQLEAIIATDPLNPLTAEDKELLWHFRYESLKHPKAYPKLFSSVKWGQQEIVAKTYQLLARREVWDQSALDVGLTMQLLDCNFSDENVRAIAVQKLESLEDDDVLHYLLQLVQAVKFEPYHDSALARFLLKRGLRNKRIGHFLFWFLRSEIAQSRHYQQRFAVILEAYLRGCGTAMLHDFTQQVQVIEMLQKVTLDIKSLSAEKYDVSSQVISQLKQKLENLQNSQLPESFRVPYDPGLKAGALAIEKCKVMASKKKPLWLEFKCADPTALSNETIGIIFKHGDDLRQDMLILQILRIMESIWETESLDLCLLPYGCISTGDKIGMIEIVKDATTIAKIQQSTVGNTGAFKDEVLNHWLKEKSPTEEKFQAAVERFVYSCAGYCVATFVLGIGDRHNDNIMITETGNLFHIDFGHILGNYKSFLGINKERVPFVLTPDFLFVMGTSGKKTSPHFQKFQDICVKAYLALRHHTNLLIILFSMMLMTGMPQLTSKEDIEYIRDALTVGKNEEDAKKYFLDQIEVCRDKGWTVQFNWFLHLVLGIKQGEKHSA
The target in a further experiment is PI3K CD (Homo sapiens, UniProt O00329). The experiment is described as follows: Protein kinase inhibition. The experiment is classed as biochemical. The following applies: tested at 3 μM. Here is the method: as §1
Sequence of PI3K CD (O00329 whole entry): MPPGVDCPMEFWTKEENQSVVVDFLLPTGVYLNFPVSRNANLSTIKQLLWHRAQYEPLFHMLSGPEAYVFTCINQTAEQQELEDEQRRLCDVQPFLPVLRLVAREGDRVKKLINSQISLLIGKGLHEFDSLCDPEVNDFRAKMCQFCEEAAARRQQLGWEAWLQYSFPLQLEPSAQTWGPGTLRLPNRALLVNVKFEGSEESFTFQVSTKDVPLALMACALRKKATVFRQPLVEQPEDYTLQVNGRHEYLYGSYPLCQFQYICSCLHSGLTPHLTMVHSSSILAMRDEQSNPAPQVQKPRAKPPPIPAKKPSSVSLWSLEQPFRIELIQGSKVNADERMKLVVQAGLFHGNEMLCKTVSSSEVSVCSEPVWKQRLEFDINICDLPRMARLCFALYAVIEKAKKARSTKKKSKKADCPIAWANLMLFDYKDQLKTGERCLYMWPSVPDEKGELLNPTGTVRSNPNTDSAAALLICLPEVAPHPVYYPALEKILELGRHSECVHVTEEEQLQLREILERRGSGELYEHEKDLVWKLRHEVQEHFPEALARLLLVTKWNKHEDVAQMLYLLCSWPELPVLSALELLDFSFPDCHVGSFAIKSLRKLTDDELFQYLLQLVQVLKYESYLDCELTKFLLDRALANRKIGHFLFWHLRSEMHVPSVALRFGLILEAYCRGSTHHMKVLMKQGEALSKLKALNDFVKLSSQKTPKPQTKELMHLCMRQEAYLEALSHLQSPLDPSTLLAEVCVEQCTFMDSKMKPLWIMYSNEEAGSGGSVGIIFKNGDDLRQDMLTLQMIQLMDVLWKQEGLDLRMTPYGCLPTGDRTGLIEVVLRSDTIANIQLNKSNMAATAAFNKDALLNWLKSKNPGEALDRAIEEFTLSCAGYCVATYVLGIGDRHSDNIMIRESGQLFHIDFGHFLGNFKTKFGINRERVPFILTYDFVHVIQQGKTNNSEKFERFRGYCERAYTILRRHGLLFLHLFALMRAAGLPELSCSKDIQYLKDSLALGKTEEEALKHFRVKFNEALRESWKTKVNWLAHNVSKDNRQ
Sequence of PI3K CD (P27986 whole entry partner): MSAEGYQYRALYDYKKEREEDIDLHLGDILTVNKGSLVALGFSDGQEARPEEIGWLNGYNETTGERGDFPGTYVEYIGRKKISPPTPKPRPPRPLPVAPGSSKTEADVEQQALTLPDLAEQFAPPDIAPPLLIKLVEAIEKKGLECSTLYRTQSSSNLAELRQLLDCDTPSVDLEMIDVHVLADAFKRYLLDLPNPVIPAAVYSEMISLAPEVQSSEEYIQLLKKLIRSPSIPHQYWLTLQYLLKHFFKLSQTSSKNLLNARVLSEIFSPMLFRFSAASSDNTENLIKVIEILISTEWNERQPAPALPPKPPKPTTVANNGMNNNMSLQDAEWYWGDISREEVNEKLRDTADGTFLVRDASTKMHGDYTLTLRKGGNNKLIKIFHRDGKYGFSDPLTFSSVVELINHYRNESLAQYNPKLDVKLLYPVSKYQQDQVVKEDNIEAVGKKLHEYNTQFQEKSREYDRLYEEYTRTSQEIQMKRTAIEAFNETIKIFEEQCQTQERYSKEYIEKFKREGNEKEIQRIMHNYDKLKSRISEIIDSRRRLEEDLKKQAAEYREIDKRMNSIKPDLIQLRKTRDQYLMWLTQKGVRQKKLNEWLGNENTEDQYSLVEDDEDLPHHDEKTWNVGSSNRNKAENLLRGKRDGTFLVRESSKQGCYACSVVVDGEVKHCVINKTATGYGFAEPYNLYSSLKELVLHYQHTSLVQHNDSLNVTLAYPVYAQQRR
Another experiment addresses PDK1 (Homo sapiens, UniProt O15530). Description: Protein kinase inhibition. The class given is biochemical. The following applies: tested at 3 μM. Here is the method: as §1
For a further experiment, the target named is P13K C3 (Homo sapiens, UniProt Q8NEB9). Description: Protein kinase inhibition. The experiment is classed as biochemical. The following applies: tested at 3 μM. As to the method: as §1

Sequence of MAPK3 (ERK1) (P27361 whole entry, species assumed): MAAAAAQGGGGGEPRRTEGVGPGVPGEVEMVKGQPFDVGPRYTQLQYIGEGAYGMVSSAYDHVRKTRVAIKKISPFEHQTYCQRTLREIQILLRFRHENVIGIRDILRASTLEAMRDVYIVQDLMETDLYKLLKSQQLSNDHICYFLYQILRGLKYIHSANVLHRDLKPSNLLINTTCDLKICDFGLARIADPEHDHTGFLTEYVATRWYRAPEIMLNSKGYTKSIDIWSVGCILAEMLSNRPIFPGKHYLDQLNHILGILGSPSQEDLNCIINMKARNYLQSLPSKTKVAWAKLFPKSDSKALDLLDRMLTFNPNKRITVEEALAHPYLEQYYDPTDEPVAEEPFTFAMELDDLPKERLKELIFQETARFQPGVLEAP
Sequence of PI3K C2A (O00443 whole entry): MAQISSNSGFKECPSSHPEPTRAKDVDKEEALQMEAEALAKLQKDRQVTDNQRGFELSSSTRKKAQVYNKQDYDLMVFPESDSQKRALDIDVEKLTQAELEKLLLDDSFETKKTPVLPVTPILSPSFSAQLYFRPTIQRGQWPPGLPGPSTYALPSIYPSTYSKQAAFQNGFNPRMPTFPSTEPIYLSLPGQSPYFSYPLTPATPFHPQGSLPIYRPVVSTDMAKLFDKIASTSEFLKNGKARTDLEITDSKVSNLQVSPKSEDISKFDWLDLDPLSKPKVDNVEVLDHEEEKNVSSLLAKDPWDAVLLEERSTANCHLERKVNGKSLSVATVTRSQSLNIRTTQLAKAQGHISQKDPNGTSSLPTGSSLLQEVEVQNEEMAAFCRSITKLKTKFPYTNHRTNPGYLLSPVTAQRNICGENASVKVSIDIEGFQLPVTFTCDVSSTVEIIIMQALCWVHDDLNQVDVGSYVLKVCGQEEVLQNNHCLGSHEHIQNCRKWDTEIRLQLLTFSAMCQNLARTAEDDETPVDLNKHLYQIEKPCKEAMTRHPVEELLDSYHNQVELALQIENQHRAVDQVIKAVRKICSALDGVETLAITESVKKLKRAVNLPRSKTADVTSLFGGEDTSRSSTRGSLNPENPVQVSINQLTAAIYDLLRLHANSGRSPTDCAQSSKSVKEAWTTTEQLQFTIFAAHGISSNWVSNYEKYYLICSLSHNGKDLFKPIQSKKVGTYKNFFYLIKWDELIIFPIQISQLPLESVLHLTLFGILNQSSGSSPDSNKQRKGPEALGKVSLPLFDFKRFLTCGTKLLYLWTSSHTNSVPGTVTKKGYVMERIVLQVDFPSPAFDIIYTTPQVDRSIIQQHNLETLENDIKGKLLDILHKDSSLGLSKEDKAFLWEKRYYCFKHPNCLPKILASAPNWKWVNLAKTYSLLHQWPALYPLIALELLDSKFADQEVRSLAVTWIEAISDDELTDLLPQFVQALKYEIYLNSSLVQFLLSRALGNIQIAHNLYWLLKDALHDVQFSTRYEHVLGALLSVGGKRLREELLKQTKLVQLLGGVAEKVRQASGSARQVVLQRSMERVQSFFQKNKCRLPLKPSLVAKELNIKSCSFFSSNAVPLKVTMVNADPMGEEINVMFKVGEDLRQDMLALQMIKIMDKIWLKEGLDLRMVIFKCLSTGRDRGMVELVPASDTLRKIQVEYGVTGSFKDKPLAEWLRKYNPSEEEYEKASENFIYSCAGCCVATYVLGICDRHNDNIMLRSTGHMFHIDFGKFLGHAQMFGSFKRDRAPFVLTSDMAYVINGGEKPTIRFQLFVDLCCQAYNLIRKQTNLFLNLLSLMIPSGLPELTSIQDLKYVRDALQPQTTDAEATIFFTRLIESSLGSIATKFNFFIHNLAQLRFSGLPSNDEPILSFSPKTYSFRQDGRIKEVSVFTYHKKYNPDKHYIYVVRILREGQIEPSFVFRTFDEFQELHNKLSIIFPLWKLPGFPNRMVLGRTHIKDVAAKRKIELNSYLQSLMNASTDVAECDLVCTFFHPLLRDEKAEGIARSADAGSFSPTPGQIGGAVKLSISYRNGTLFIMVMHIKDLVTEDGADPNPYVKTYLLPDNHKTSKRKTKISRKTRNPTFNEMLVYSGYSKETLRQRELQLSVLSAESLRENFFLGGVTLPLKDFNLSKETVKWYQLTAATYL

For `Cc1nc2c(-c3ccccc3)c(C)nn2c(NCc2ccccn2)c1Cc1ccccc1` [Structure 1], the “Flies with Reversed Phenotype” value in experiment [1] (Experiment 1, 20 μM in fly food) is on record as 75%; in experiment [1] (Experiment 2, 20 μM in fly food), 58%. Also, in experiment [1] (Experiment 1, 75% versus 29%), the “Flies with phenotype reversals relative to positive control trametinib” value is “over 2.5 fold”. In addition, in experiment [1] (screen of over 16,000 ChemDiv compounds, ~100 μM in fly food, 12 days), the “Ability to reverse the crinkled wing phenotype in library screen” value is on record as “reliably reversed the phenotype”. The “Effect on non-phosphorylated AKT” value in the experiment on non-phosphorylated AKT was “no effect; also recorded: without affecting”. Moreover, the “Kinase inhibitory activity, MAPK3 (ERK1)” value on MAPK3 (ERK1) is “No kinase inhibitory activity”. The “Kinase inhibitory activity, PI3K C2A” value on PI3K C2A is given as “No kinase inhibitory activity”. Also, the “Kinase inhibitory activity, PI3K CG” value at PI3K CG is “No kinase inhibitory activity”. Further, at PI3K CD, the “Kinase inhibitory activity, PI3K CD” value was “No kinase inhibitory activity”. For the same compound, the “Kinase inhibitory activity, PDK1” value at PDK1 is recorded as “No kinase inhibitory activity”. Further, the “Kinase inhibitory activity, P13K C3” value at P13K C3 is “No kinase inhibitory activity”.
